Results published in patent EP1095657A2, “Compositions for the regulation of cytokine activity” (priority 1992, dated 1994).

How the values were obtained:
[1] = test system: experimental DTH reaction in mice; assay: In vivo bioassay of inhibition of experimental DTH reactivity (oxazolone ear swelling); parameters: species or system mice (BALB/c or CD1); key to effect on the experimental DTH reaction (monosaccharides): "N.E." indicates that no effect was observed at the tested dosage range of 0.000004-4 µg/gm mouse; settings: for DTH: at that dose, value in parentheses in the cell taken as positive control, not reported; for effect on the experimental DTH reaction (monosaccharides): dosage range of 0.000004-4 µg/gm mouse
Experimental: Groups of inbred BALB/c (Jackson Laboratories, Bar Harbor, ME) or of outbred CD1 (Weizmann Institute Animal Breeding Center, Rehovot, Israel) mice are sensitized on the shaved abdominal skin with 100 µl of 2% oxazolone (OX) in acetone/olive oil (4/1, v/v) applied topically. DTH sensitivity is elicited 5 days later as follows: mice are challenged with 20 µl of 0.5% OX (10 µl administered topically to each side of the ear) in acetone/olive oil. A constant area of the ear is measured immediately before challenge and 24 and 48 h later with a Mitutoyo engineer's micrometer. The individual measuring ear swelling is blinded to the identity of the groups of mice. The increment (△) of ear swelling is expressed as the mean in units of 10^-2 mm or 10^-4 inch (+SE) depending on the micrometer that is used. Percent inhibition is calculated as follows: %Inhibition= 1-((Treated-negative control)/(positive control-negative control)) [formula]
Mice are treated with LMWH as in Example 5.1, injected the day before primary sensitization to OX. On the fifth day after sensitization to OX, the mice are challenged to induce a DTH reaction, as described above.
The positive control is the DTH reaction elicited in immunized mice in the absence of treatment with LMWH. The negative control is the background swelling produced by the antigen in naive (non-immunized) mice.
BALB/c mice (at least 5 mice per group) were sensitized on the shaved abdomen with 3% 4-ethoxymethylene-2-phenyl oxazolone (OX; BDH Chemicals, GB) in acetone/olive oil applied topically. DTH sensitivity was elicited 5 days later as follows. Mice were challenged with 0.5% OX in acetone/olive oil. The ear was measured immediately before challenge and 24 h later with Mitutoyo engineer's micrometer (Japan). The individual measuring the swelling of the ear was blinded to the identity of the groups of mice. To interfere with DTH response, the low molecular weight immuno-regulatory fractions, diluted in PBS, were administrated subcutaneously into the back of the treated mice at the indicated time schedules and concentrations. Treated mice were inspected during and after (>2 months) the treatment and no major side-effects were observed clinically.
In particular, CD1 mice (available from the Weizmann Institute Animal Breeding Center, Rehovot, Israel), 4-12 mice per group, were treated as described in Section 5.2 or 6.8.

[2] = test system: adjuvant arthritis in Lewis rats; assay: Adjuvant arthritis (AA) in rats; type: in vivo
IDDM of NOD mice = assay: Insulin dependent diabetes mellitus (IDDM) of NOD mice; type: in vivo
[3] = test system: mortality after gamma irradiation; assay: Radioprotective effect in gamma-irradiated mice; type: in vivo, BALB/c mice
Experimental: Groups of female BALB/c mice, 8 weeks old, 5-10 mice per group, were injected subcutaneously with either saline (0.1 ml, control), H-9392 (30 ng/mouse), or glucosamine (10,000 ng/mouse) 1 day before irradiation, and weekly thereafter until termination of the experiment on day 30. All the mice were irradiated to a dose of 700 rads using a ^60Co gamma radiation source.
In a separate experiment, groups of BALB/c mice (5 mice to a group) were likewise exposed to 750 rads of gamma-rays, except that these groups of mice were treated with test substances (saline at 0.1 ml per mouse; H-9392 at 0.3, 3, 30 and 300 ng/mouse; and glucosamine at 1, 10 and 100 µg/mouse) on the day before irradiation, on the sixth day after irradiation, and once again on the thirteenth day after irradiation only. All treatment ceased after the third and last administration.

[4] = test system: secretion of active TNF-α by activated human CD4+ T cells; assay: Bioassay of TNF-α activity using human CD4+ T cells derived from PBLs (human PBL bioassay); settings: for Bioassay of TNF Activity, in words: conc range of 1 µg/ml - 0.01 pg/ml, inconsistent = not the same result in all three bioassays; for "R" value: zero assigned where no effect is observed
[5] = CD1 mice, s.c., dose giving Inhmax in the higher effective dose range
[6] = CD1 mice, s.c., higher effective dose range
[7] = CD1 mice, s.c., inhibitory, 0 = no effect

Structure (SMILES)	Inhmax ([1]; CD1 mice, s.c.) [%]	"R" value [1, 7]	Bioassay of TNF Activity, in words [4]	effect on the experimental DTH reaction, in words (disaccharide markers) ([1]; CD1 mice, s.c.)	further results
N[C@H]1C(O)O[C@H](CO)[C@H](O)[C@@H]1O (stereo partly drawn) [GalN, D-Galactosamine]	50	1.25 x 10^6 % x (μg/gm)^-1			Dose [1, 5]: 0.12 µg/gm; "R" value [1, 6]: 5.58 x 10^2 % x (µg/gm)^-1; Inhmax [1, 6]: 67%; effect on AA, in words ([2]; s.c. weekly, different dosages (FIG. 38C)): inhibitory effects but to a much lesser degree than that shown by glucosamine
N[C@H]1C(O)O[C@H](CO)[C@@H](O)[C@@H]1O (stereo partly drawn) [GlcN, 2-amino-2-deoxy-D-glucose]	75	6.25 x 10^6 % x (μg/gm)^-1			Dose [1, 5]: 0.4 µg/gm; "R" value [1, 6]: 2.2 x 10^2 % x (µg/gm)^-1; Inhmax [1, 6]: 88%; inhibition of the development of AA, of control levels ([2]; s.c. weekly, three dosage levels): 60-80%; mice that had become diabetic (IDDM of NOD mice; at 4.5 months, H-9392 30 ng/mouse, glucosamine 10,000 ng/mouse s.c., all control mice diabetic): about 65%; mice that had died, in words (IDDM of NOD mice; by age 5 months, H-9392 30 ng, glucosamine 10,000 ng, all control mice had died): about half; mortality rate ([3]; 700 rads, by day 30, s.c. 1 day before irradiation and weekly, H-9392 30 ng/mouse, glucosamine 10,000 ng/mouse, saline 100%): 20%; activity in suppressing mortality after irradiation, in words ([3]; 750 rads, three administrations, 300 ng H-9392, 1 µg glucosamine): moderate activity in suppressing mortality
O=S(=O)(O)N[C@H]1C(O)O[C@H](CO)[C@@H](O)[C@@H]1OS(=O)(=O)O (stereo partly drawn) [GlcN-2,3S, D-Glucosamine-2,3-disulfate]	68	5.67 x 10^4 % x (μg/gm)^-1			DTH ([1]; CD1 mice, s.c.): 6.3 ± 1 (19.7 ± 1.2) 10^-2 mm
O=S(=O)(O)N[C@H]1C(O)O[C@H](COS(=O)(=O)O)[C@@H](O)[C@@H]1O (stereo partly drawn) [GlcN-2,6S, D-Glucosamine-2,6-disulfate]	61				DTH ([1]; CD1 mice, s.c.): 7.7 ± 1 (19.7 ± 1.2) 10^-2 mm
O=S(=O)(O)N[C@H]1C(O)O[C@H](CO)[C@@H](O)[C@@H]1O (stereo partly drawn) [GlcN-2S, D-Glucosamine-2-N-sulfate]		0 % x (μg/gm)^-1			effect on the experimental DTH reaction (monosaccharides) ([1]; CD1 mice, s.c.): N.E.
N[C@H]1C(O)O[C@H](CO)[C@@H](O)[C@@H]1OS(=O)(=O)O (stereo partly drawn) [GlcN-3S, D-Glucosamine-3-sulfate]		0 % x (μg/gm)^-1			effect on the experimental DTH reaction (monosaccharides) ([1]; CD1 mice, s.c.): N.E.
N[C@H]1C(O)O[C@H](COS(=O)(=O)O)[C@@H](O)[C@@H]1O (stereo partly drawn) [GlcN-6S, D-Glucosamine-6-sulfate]		0 % x (μg/gm)^-1			effect on the experimental DTH reaction (monosaccharides) ([1]; CD1 mice, s.c.): N.E.
CC(=O)N[C@H]1C(O)O[C@H](CO)[C@@H](O[C@@H]2OC(C(=O)O)=C[C@H](O)[C@H]2O)[C@@H]1O (stereo partly drawn) [H-0895, 4-deoxy-4-en-iduronic acid-(α-1,4)-2-deoxy-2-N-acetylglucosamine]			Inconsistent		Inhmax column, value printed with +: augmentation of the DTH swelling ([1]; CD1 mice, s.c.): +92%; dose giving the augmenting effect on swelling ([1]; CD1 mice, s.c.): about 1.2 picograms disaccharide per gram mouse; DTH ([1]; CD1 mice, s.c.): 37.3 ± 0.7 (18.9 ± 0.7) 10^-2 mm; AA score against control, in words ([2]; 0.1 and 0.4 ng/rat s.c. weekly, day 24): not substantially different from control levels; effect on AA, in words ([2]; 0.1 and 0.4 ng/rat s.c. weekly, within about 2 weeks of induction): increased level of AA development
O=C(O)C1=C[C@H](O)[C@@H](O)[C@H](O[C@H]2[C@H](O)[C@@H](NS(=O)(=O)O)C(O)O[C@@H]2CO)O1 (some centres unmarked) [H-1145]		0 % x (μg/gm)^-1		neutral and N.E.	
CC(=O)N[C@H]1C(O)O[C@H](COS(=O)(=O)O)[C@@H](O[C@@H]2OC(C(=O)O)=C[C@H](O)[C@H]2O)[C@@H]1O (some centres unmarked) [H-8642]		0 % x (μg/gm)^-1	Inconsistent	N.E.	
CC(=O)N[C@H]1C(O)O[C@H](CO)[C@@H](O[C@@H]2OC(C(=O)O)=C[C@H](O)[C@H]2OS(=O)(=O)O)[C@@H]1O (some centres unmarked) [H-8767]		0 % x (μg/gm)^-1	Inconsistent	N.E.	
N[C@H]1C(O)O[C@H](COS(=O)(=O)O)[C@@H](O[C@@H]2OC(C(=O)O)=C[C@H](O)[C@H]2OS(=O)(=O)O)[C@@H]1O (some centres unmarked) [H-8892]		0 % x (μg/gm)^-1	No effect	neutral and N.E.	"R" value [4]: 0 % x (pg/ml)^-1
N[C@H]1C(O)O[C@H](COS(=O)(=O)O)[C@@H](O[C@@H]2OC(C(=O)O)=C[C@H](O)[C@H]2O)[C@@H]1O (some centres unmarked) [H-9017]		0 % x (μg/gm)^-1	No effect	neutral and N.E.	"R" value [4]: 0 % x (pg/ml)^-1
N[C@H]1C(O)O[C@H](CO)[C@@H](O[C@@H]2OC(C(=O)O)=C[C@H](O)[C@H]2OS(=O)(=O)O)[C@@H]1O (some centres unmarked) [H-9142]		0 % x (μg/gm)^-1	Inconsistent	neutral and N.E.	
O=C(O)C1=C[C@H](O)[C@@H](OS(=O)(=O)O)[C@H](O[C@H]2[C@H](O)[C@@H](NS(=O)(=O)O)C(O)O[C@@H]2COS(=O)(=O)O)O1 (stereo partly drawn) [H-9267, 2-O-sulfate-4-deoxy-4-en-iduronic acid-(α-1,4)-2-deoxy-2-N-sulfate-6-O-sulfateglucosamine]	64	1.60 x 10^5 % x (μg/gm)^-1	Inconsistent		DTH ([1]; CD1 mice, s.c.): 7.2 ± 1 (19.6 ± 1.2) 10^-2 mm; DTH Response ([1]; at the dose giving Inhmax, subcutaneous): 3.5 ± 1 10^-2mm; Dose ([1]; dose giving Inhmax, subcutaneous): 0.0005 µg/gm mouse; "R" value ([1]; inhibitory, maximum % inhibition of DTH divided by the dose giving it, s.c., 0 = no effect): 160,000 % x (µg/gm)^-1; Inhmax ([1]; maximum inhibition of DTH, subcutaneous): 80%
CC(=O)N[C@H]1C(O)O[C@H](COS(=O)(=O)O)[C@@H](O[C@@H]2OC(C(=O)O)=C[C@H](O)[C@H]2OS(=O)(=O)O)[C@@H]1O (stereo partly drawn) [H-9517, 2-O-sulfate-4-deoxy-4-en-iduronic acid-(α-1,4)-2-deoxy-2-N-acetyl-6-O-sulfateglucosamine]	62	1.55 x 10^6 % x (μg/gm)^-1	Inconsistent^c		DTH ([1]; CD1 mice, s.c.): 7.6 ± 1 (20.4 ± 0.7) 10^-2 mm
CC(=O)N[C@H]1C(O)O[C@H](CO)[C@@H](O)[C@@H]1O (some centres unmarked) [NAc-GlcN, N-Acetylglucosamine]		0 % x (μg/gm)^-1			effect on the experimental DTH reaction (monosaccharides) ([1]; CD1 mice, s.c.): N.E.
C[C@@H]1C[C@H]2[C@@H]3CCC4=CC(=O)C=C[C@]4(C)[C@@]3(F)[C@@H](O)C[C@]2(C)[C@@]1(O)C(=O)COP(=O)(O)O [dexamethasone phosphate]					course of AA after treatment has ended, in words ([2]; 100 µg per rat s.c. daily from day 12): suffered a relapse; effect on AA at 30 days post-induction, in words ([2]; weekly s.c. from day 12 to day 26, 120 ng disaccharide or 100 µg dexamethasone phosphate per rat): only a moderate reduction in the severity of the AA score
